The test deals with T1, PpGRXC5 (Physcomitrium patens, UniProt A0A2K1KTP0).
T1 construct: gene LOC112280307; targeting peptide removed, starts at Ala120 to native stop; Gateway vector pETG-10A, E. coli Rosetta2; tag not described; active site YCPYC
T1 sequence (A0A2K1KTP0 120-228): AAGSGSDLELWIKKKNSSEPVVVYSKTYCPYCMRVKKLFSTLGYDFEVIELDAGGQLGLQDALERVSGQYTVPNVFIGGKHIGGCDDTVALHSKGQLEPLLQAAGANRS
The test is described as follows: HED assay, GR-coupled NADPH oxidation at […] nm. The format is biochemical. Conditions: 0.3-1.5 mM HED varied, 1 mM GSH constant, 200 uM NADPH, yeast GR, 30 nM enzyme, 100 mM Tris-HCl, 1 mM EDTA, pH 7.9; actual substrate is the glutathione-mercaptoethanol mixed disulfide; read-out: Km^app.

As a reminder, the Km is the substrate concentration at which the rate is half of its maximum. Consider `OCCSSCCO` [HED, bis(2-hydroxyethyl)disulfide], for which the Michaelis constant (Km) is 390 ± 110 µM.

The record behind these values is article PMC10808970, “Chloroplasts lacking class I glutaredoxins are functional but show a delayed recovery of protein cysteinyl redox state after oxidative challenge” (Redox Biology, 2023).
